Measured values reported in ChEMBL document CHEMBL2086338, “Design, synthesis, and evaluation of 2-substituted ethenesulfonic acid ester derivatives as protein tyrosine phosphatase 1B inhibitors” (Eur J Med Chem, 2012).
pIC50: −log10 of the molar value.

Key:
[1] = target: T1, Tyrosine-protein phosphatase non-receptor type 1 (Homo sapiens, UniProt P18031); assay: Inhibition of human recombinant PTP1B assessed as inhibition of hydrolysis of […] after 10 mins by spectrophotometry
T1 sequence (P18031 whole entry): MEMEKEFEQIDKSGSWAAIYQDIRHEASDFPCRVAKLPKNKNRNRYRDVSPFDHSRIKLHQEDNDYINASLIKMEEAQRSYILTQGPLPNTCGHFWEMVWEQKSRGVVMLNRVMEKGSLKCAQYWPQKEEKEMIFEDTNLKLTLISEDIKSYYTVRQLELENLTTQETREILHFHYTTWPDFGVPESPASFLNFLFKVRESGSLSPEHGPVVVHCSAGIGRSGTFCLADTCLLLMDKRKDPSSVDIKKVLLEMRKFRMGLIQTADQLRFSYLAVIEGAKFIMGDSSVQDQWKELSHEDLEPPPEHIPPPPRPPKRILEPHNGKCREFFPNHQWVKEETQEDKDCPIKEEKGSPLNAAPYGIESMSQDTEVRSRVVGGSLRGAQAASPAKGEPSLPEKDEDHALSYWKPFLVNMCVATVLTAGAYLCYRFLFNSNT

Homo sapiens = species: Homo sapiens; assay: Selectivity ratio of IC50 for human recombinant TCPT to IC50 for human recombinant PTP1B
[2] = target: T2, Tyrosine-protein phosphatase non-receptor type 2 (Homo sapiens, UniProt P17706); assay: Inhibition of human recombinant TCPTP assessed as inhibition of hydrolysis of […] after 10 mins by spectrophotometry
T2 sequence (P17706 whole entry): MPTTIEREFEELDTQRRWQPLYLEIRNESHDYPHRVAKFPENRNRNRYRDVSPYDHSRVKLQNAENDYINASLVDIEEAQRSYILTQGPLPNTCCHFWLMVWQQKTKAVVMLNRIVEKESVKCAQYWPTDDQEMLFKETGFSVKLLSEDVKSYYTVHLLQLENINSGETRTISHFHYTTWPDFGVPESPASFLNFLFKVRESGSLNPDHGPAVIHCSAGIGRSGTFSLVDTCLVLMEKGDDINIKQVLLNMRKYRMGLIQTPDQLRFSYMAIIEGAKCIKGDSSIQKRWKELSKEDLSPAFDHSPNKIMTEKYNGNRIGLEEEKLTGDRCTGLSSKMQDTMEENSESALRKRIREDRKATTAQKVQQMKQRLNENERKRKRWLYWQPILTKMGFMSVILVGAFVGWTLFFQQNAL

COS-7 = assay: Cytotoxicity against african green monkey COS7 cells after 48 hrs by MTT assay; format: cell-based; conditions: Chlorocebus aethiops, COS-7, 48 h

SMILES	pIC50 [1]	Ratio IC50 (Homo sapiens)	pIC50 [2]	pIC50 (COS-7)
CCCCOS(=O)(=O)/C=C/c1ccc(OCCc2nc(-c3ccccc3)oc2C)cc1	< 4.00	–	< 4.00	< 4.00
CCOS(=O)(=O)/C=C/c1ccc(OCc2ccccc2)cc1OCCc1nc(-c2ccccc2)oc1C	< 4.00	–	< 4.00	< 4.00
CCOS(=O)(=O)/C=C/c1ccc(OCc2ccccc2)cc1OCCc1csc(-c2ccccc2)n1	4.42	–	4.39	< 4.00
CCOS(=O)(=O)/C=C/c1ccc(OCCNc2nc(-c3ccccc3)cs2)cc1	< 4.00	–	< 4.00	< 4.00
COS(=O)(=O)/C=C/c1ccc(OCc2ccccc2)cc1OCCc1nc(-c2ccccc2)oc1C	4.61	–	4.40	< 4.00
CCOc1ccc(-c2cc(COc3ccc(/C=C/S(=O)(=O)OCC)cc3)no2)cc1	4.35	–	< 4.00	< 4.00
COC(=O)/C=C/c1ccc(/C=C/c2ccc(O)c(O)c2)cc1	< 4.83	–	–	–
CCOS(=O)(=O)/C=C/c1ccc(OCc2ccccc2)cc1OCCc1nc(-c2ccccc2)sc1C	< 4.00	–	< 4.00	< 4.00
CCOS(=O)(=O)/C=C/c1ccc(OCCc2nc(-c3ccccc3)oc2C)cc1	< 4.00	–	< 4.00	4.08
CCOS(=O)(=O)/C=C/c1ccc(OCc2cc(-c3ccccc3)on2)cc1	< 4.00	–	< 4.00	< 4.00
CCCCOS(=O)(=O)/C=C/c1ccc(OCc2ccccc2)cc1OCCc1nc(-c2ccccc2)oc1C	< 4.00	–	< 4.00	< 4.00
CCCCOS(=O)(=O)/C=C/c1ccc(OCCc2csc(-c3ccccc3)n2)cc1	< 4.00	–	< 4.00	< 4.00
CCOS(=O)(=O)/C=C/c1ccc(OCCCNc2nc(-c3ccccc3)cs2)cc1	4.61	–	4.53	< 4.00
CCOS(=O)(=O)/C=C/Cc1nc(-c2ccccc2)sc1C	< 4.00	–	< 4.00	< 4.00

Second part, led by results:

pIC50 [1]	Ratio IC50 (Homo sapiens)	pIC50 [2]	SMILES	pIC50 (COS-7)
5.82	2	4.50	CCOS(=O)(=O)/C=C/c1ccc(OCCCCNc2nc(-c3ccccn3)cs2)cc1	–
5.07	2	4.95	CCOS(=O)(=O)/C=C/c1ccc(OCCCCNc2nc(-c3cccs3)cs2)cc1	–
5.24	–	4.97	CCOS(=O)(=O)/C=C/c1ccc(OCCCCNc2nc(-c3ccccc3)c(C)s2)cc1	–
4.82	–	< 4.00	CCOS(=O)(=O)/C=C/c1ccc(OCCCCNc2nc(-c3ccccc3)c(C)s2)c(OC)c1	–
5.62	2	5.06	CCOS(=O)(=O)/C=C/c1ccc(OCCCCNc2nc(-c3cccc4ccccc34)cs2)cc1	–
4.66	–	4.58	CCOS(=O)(=O)/C=C/c1ccc(OCCCCNc2nc(-c3ccccc3)cs2)cc1	< 4.00
5.59	–	5.07	CCOS(=O)(=O)/C=C/c1ccc(OCCCCNc2nc(-c3ccccc3)c(-c3ccccc3)s2)c(OC)c1	–
5.72	2	4.80	CCOS(=O)(=O)/C=C/c1ccc(OCCCCNc2nc(-c3ccc(-c4ccccc4)cc3)cs2)cc1	–
5.48	2	5.24	CCOS(=O)(=O)/C=C/c1ccc(OC)c(OCCCCNc2nc(-c3ccccc3)cs2)c1	–
5.29	2	4.94	CCOS(=O)(=O)/C=C/c1ccc(OC)c(OCCCCNc2nc(-c3ccccc3)c(-c3ccccc3)s2)c1	–
5.01	2	4.81	CCOS(=O)(=O)/C=C/c1ccc(OC)c(OCCCCNc2nc(-c3ccccc3)c(C)s2)c1	–
5.70	2	5.09	CCOS(=O)(=O)/C=C/c1ccc(OCCCCNc2nc(-c3cccc(OC)c3)cs2)cc1	–
5.02	–	4.63	CCOS(=O)(=O)/C=C/c1ccc(OCCCCNc2nc(-c3ccccc3)c(-c3ccccc3)s2)cc1	–
5.85	2	5.30	CCOS(=O)(=O)/C=C/c1ccc(OCCCCNc2nc(-c3ccccc3Cl)cs2)cc1	–
4.98	2	< 4.00	CCOS(=O)(=O)/C=C/c1ccc(OCCCCNc2nc(-c3ccc(OC)cc3)cs2)cc1	–
5.89	2	5.44	CCOS(=O)(=O)/C=C/c1ccc(OCCCCNc2nc(-c3ccc(Br)cc3)cs2)cc1	–
5.60	2	5.19	CCOS(=O)(=O)/C=C/c1ccc(OCCCCNc2nc(-c3ccccc3F)cs2)cc1	–
5.89	2	4.85	CCOS(=O)(=O)/C=C/c1ccc(OCCCCNc2nc(-c3ccc(F)cc3)cs2)cc1	–
5.30	–	–	O=S(=O)(O)C(F)(F)c1ccc(-c2cccc(F)c2)cc1	–
